Molecules are shown by their SMILES. Active and inactive are the calls of the source. For most assays here, no stated cut-off is given here; in the data, actives have a measured Kd and inactives only a lower limit.

Test [1] addresses T1, DNA replication licensing factor MCM4 (Homo sapiens, UniProt P33991).
T1 sequence (P33991 whole entry): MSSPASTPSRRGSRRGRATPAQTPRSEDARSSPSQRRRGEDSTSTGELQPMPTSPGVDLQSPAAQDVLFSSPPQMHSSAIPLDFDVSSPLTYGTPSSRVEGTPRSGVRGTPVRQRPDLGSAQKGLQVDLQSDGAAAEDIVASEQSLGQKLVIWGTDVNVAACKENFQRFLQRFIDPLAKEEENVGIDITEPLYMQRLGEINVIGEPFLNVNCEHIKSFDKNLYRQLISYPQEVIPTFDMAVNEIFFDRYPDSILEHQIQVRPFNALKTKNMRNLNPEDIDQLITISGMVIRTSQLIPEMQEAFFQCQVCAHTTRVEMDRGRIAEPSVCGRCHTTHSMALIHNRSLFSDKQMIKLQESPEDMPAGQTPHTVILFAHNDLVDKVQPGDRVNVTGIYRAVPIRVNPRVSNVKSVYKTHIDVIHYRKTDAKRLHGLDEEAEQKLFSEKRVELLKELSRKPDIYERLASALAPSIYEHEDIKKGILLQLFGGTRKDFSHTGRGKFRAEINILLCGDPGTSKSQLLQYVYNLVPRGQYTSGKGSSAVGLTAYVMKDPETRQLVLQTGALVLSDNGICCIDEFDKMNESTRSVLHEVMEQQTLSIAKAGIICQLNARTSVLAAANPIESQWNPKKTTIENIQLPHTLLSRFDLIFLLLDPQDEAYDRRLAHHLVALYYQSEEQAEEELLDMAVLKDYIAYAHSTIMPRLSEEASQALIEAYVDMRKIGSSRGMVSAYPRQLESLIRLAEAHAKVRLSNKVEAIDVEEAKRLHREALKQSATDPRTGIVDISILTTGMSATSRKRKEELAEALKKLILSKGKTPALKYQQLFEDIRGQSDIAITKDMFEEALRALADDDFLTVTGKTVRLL

Test [2] has as its target T2, Beta-adrenergic receptor kinase 1 (Homo sapiens, UniProt P25098).
T2 sequence (P25098 whole entry): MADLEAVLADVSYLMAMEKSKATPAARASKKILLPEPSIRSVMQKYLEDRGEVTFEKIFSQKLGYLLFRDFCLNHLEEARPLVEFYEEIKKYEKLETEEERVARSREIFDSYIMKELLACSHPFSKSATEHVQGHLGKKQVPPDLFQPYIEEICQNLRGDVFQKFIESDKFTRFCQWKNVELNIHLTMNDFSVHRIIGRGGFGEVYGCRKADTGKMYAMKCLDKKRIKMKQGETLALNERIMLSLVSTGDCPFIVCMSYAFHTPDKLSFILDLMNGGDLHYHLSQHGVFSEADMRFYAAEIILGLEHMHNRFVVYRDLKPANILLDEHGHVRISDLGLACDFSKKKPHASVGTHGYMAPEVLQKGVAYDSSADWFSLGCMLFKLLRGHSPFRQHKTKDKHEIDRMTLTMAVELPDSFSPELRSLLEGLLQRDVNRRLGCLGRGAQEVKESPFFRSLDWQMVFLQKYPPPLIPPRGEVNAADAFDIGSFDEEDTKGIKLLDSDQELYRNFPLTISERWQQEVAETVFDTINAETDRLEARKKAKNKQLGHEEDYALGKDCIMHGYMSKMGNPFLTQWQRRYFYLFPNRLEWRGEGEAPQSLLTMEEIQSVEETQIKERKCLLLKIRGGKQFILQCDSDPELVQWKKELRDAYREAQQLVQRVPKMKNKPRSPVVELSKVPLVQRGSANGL

Test [3] has as its target Cyclin-dependent kinase 6 (Homo sapiens, UniProt Q00534).
The target of test [4] is Rho-associated protein kinase 1 (Homo sapiens, UniProt Q13464).
Sequence of Rho-associated protein kinase 1 (Q13464 whole entry): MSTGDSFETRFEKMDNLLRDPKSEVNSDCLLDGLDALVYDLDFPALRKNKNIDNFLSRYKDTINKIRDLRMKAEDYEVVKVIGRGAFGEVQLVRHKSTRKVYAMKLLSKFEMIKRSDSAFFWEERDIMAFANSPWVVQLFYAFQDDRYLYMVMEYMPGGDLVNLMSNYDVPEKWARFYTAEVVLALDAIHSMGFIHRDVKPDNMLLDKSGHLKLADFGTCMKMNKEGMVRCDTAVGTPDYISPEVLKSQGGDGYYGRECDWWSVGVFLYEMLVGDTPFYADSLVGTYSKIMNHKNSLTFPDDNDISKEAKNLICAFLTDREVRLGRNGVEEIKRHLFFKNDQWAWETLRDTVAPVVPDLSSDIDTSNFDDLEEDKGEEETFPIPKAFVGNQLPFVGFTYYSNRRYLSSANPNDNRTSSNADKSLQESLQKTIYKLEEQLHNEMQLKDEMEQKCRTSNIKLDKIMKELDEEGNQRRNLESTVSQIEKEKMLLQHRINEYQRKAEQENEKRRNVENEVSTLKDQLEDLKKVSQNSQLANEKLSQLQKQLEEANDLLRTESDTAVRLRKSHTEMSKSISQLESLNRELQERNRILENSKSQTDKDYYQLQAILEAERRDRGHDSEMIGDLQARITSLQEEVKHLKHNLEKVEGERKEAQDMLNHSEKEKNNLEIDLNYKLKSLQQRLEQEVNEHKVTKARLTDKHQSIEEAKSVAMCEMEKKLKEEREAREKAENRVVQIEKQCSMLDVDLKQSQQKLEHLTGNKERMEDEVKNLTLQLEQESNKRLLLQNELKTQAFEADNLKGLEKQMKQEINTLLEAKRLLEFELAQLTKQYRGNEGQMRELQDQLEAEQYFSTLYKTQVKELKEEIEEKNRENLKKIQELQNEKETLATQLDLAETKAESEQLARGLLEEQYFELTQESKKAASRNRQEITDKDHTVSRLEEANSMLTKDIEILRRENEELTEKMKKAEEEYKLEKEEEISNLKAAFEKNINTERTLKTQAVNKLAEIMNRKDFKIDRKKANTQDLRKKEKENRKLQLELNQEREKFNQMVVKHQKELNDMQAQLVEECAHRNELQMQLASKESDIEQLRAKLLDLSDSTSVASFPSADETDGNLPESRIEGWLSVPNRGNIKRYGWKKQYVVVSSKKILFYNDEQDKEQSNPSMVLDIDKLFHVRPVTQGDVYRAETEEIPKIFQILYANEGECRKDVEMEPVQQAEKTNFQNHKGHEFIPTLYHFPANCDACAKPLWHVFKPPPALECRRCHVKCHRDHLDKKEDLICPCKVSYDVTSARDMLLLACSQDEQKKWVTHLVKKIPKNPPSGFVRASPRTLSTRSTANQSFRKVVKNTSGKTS
Test [5] deals with Mitogen-activated protein kinase 11 (Homo sapiens, UniProt Q15759).
Sequence of Mitogen-activated protein kinase 11 (Q15759 whole entry): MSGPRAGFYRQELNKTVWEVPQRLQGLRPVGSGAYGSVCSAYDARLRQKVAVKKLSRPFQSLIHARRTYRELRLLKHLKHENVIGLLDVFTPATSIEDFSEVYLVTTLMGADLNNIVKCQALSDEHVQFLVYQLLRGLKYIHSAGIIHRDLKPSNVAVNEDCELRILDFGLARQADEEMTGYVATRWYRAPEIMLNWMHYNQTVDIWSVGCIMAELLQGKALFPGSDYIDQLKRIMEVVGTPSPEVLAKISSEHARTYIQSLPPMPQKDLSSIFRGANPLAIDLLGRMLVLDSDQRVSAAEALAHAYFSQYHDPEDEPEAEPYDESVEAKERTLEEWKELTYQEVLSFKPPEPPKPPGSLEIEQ
Test [6] has as its target Calcium/calmodulin-dependent protein kinase type II subunit delta (Homo sapiens, UniProt Q13557).
Test [7] concerns the target T3, Serine/threonine-protein kinase Nek9 (Homo sapiens, UniProt Q8TD19).
T3 sequence (Q8TD19 whole entry): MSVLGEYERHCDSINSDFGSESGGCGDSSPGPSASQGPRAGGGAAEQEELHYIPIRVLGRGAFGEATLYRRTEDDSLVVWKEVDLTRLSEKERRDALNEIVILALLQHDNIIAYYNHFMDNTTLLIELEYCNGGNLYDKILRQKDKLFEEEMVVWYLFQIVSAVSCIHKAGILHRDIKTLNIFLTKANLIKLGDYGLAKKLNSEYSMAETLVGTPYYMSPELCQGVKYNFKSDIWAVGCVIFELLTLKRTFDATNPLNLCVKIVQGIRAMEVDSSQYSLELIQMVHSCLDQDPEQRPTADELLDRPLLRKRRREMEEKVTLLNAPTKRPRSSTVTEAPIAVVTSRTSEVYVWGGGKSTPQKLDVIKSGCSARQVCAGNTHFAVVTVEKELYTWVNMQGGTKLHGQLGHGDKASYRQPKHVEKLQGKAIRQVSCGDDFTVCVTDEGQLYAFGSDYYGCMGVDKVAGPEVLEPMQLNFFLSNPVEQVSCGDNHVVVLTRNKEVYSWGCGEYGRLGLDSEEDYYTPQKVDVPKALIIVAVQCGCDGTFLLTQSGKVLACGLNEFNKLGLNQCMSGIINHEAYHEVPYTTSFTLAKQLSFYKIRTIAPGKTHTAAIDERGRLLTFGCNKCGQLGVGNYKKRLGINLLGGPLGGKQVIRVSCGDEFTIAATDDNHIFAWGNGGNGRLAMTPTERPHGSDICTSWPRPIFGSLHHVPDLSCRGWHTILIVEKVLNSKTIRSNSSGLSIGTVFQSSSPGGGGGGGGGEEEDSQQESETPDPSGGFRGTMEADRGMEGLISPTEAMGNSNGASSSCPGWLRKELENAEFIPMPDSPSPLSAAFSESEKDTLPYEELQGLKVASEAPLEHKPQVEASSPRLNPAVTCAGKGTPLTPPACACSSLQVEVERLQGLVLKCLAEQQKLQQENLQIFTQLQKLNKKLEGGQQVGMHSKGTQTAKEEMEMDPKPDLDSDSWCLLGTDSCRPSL

The target in test [8] is Serine/threonine-protein kinase PAK 4 (Homo sapiens, UniProt O96013).
Sequence of Serine/threonine-protein kinase PAK 4 (O96013 whole entry): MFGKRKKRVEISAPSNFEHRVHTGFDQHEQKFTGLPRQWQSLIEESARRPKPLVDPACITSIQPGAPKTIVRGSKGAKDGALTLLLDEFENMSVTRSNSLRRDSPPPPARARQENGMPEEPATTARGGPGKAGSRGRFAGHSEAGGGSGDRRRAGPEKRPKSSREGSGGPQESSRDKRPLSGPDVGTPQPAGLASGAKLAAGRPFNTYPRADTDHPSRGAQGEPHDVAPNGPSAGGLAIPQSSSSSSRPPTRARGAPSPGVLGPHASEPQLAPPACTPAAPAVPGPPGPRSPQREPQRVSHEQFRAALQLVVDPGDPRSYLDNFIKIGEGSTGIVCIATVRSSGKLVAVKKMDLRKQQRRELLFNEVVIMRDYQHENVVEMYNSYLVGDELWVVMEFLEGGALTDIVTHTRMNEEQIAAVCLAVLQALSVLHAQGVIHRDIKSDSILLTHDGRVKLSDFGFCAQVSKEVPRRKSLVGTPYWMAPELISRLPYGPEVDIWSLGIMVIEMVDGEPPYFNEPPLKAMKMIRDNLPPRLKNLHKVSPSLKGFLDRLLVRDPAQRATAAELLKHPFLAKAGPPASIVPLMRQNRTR
The target in test [9] is Insulin-like growth factor 1 receptor (Homo sapiens, UniProt P08069).
Sequence of Insulin-like growth factor 1 receptor (P08069 31-736 limits assumed): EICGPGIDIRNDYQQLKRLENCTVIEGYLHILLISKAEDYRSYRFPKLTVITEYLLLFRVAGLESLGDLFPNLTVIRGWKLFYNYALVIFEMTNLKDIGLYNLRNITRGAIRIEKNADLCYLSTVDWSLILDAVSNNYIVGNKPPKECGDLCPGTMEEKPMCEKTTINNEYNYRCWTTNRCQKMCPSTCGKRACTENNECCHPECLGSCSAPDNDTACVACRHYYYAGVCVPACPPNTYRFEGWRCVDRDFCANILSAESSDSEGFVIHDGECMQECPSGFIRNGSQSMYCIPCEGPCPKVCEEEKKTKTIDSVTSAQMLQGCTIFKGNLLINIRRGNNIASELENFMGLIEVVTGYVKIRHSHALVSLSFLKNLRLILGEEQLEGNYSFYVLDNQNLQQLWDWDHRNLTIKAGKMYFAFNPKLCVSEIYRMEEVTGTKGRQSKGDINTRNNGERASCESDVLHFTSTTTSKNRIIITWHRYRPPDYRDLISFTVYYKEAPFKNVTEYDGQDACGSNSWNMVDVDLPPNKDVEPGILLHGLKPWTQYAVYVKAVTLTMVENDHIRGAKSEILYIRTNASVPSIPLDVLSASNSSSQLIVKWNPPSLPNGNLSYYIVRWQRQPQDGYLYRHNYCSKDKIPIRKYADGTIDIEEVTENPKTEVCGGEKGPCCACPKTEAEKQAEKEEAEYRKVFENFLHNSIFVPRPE
Sequence of Insulin-like growth factor 1 receptor (P08069 741-1367 limits assumed): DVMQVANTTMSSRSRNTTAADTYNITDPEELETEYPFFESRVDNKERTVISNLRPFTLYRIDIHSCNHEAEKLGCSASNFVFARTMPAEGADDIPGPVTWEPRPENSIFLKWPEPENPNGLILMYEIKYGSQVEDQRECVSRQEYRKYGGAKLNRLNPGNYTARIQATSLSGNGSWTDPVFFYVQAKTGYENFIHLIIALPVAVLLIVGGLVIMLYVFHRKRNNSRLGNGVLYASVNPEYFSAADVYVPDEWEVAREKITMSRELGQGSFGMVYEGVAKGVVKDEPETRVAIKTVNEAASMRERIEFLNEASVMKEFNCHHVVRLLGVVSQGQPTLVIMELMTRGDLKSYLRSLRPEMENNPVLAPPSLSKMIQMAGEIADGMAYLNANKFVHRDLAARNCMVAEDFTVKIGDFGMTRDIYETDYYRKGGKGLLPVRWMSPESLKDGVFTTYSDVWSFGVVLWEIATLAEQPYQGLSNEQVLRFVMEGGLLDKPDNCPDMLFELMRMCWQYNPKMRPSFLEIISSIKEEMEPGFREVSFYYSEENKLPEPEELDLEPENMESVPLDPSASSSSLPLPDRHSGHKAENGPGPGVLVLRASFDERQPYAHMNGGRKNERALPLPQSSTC
The target of test [10] is Ras-related protein Rab-6A (Homo sapiens, UniProt P20340).
Sequence of Ras-related protein Rab-6A (P20340 whole entry): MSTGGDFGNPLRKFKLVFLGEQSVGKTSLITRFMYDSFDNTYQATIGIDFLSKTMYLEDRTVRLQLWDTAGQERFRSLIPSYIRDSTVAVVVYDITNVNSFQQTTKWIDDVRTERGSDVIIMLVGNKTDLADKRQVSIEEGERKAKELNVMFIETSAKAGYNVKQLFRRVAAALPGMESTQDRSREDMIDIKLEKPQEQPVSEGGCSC
The target of test [11] is Receptor-interacting serine/threonine-protein kinase 2 (Homo sapiens, UniProt O43353).

Sequence of Cyclin-dependent kinase 6 (Q00534 whole entry): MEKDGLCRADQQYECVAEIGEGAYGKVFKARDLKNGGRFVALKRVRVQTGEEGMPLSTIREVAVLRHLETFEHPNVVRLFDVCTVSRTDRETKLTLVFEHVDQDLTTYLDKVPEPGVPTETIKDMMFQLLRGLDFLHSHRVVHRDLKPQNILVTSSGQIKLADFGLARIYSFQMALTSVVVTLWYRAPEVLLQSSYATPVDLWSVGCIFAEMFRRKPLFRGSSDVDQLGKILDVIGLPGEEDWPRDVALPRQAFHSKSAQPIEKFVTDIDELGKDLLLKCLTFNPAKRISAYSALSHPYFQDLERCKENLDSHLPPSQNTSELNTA
Sequence of Calcium/calmodulin-dependent protein kinase type II subunit delta (Q13557 whole entry): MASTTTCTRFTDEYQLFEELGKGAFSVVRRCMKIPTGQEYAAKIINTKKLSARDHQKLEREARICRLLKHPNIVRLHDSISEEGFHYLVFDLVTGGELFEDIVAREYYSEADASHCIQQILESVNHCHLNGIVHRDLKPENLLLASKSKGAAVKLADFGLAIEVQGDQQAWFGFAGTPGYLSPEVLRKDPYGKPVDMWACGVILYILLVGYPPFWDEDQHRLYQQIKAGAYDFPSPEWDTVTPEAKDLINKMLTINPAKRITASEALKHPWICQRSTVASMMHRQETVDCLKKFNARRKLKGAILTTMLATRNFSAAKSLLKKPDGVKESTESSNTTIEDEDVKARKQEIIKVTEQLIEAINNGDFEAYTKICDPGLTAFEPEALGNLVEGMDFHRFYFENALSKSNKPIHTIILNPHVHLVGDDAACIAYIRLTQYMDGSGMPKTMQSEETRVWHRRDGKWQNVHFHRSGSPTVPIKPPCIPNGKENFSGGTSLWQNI

In general, Kd refers to a measure of binding affinity in units of concentration. Consider `COc1ccc(-c2ccc3c(N4CCOC[C@@H]4C)nc(N4CCOC[C@@H]4C)nc3n2)cc1CO` [AZD-8055], for which the Kd in [1], in [2], in test [3], in [4], in test [5] and in [6] was > 30 µM (inactive) each time. Moreover, the Kd in [7], in test [8], in [9], in [10] and in [11] was > 30 µM (inactive) throughout.
For the compound `CN1CC[C@@H](c2c(O)cc(O)c3c(=O)cc(-c4ccccc4Cl)oc23)[C@@H]1CO`, the Kd in [1], in [2], in test [3], in test [4], in test [5] and in test [6] was > 30 µM (inactive) each time. Also, the Kd in test [7], in test [8], in [9], in test [10] and in test [11] was > 30 µM (inactive) in each case.
On to `C=CC(=O)N1CCC(Oc2cc3c(Nc4ccc(Cl)c(Cl)c4F)ncnc3cc2OC)CC1` [POZIOTINIB], for which the Kd in [1], in [2], in [3], in [4], in test [5] and in test [6] was > 30 µM (inactive) in each case. In addition, the Kd in test [7] was > 30 µM (inactive); in test [8], > 30 µM (inactive); in [9], > 30 µM (inactive); in [10], > 30 µM (inactive); in test [11], 0.048 µM (active).
On to `Cc1ccc(-n2nc(C(C)(C)C)cc2NC(=O)NCc2cc(F)ccc2Oc2ccc3c(cnn3CCO)c2)cc1` [PEXMETINIB], for which the Kd in [1] is > 30 µM (inactive); in test [2], > 30 µM (inactive); in test [3], > 30 µM (inactive); in test [4], > 30 µM (inactive); in test [5] it was 0.192 µM (active); in [6], > 30 µM (inactive). Also, the Kd in test [7], in test [8], in test [9], in test [10] and in test [11] was > 30 µM (inactive) throughout.
In the case of `COc1cc(N2CCC(N3CCN(C)CC3)CC2)ccc1Nc1ncnc(Nc2ccccc2S(=O)(=O)C(C)C)n1` [ASP-3026], the Kd in test [1] is > 30 µM (inactive); in test [2], > 30 µM (inactive); in test [3], > 30 µM (inactive); in [4], > 30 µM (inactive); in [5] it was > 30 µM (inactive); in [6] it was 0.704 µM (active). Besides, the Kd in test [7] is > 30 µM (inactive); in test [8], > 30 µM (inactive); in [9], 9.72 µM (active); in [10], > 30 µM (inactive); in [11], > 30 µM (inactive).
As to `C[C@@H](Nc1cc(F)cc(F)c1)c1cc(C(=O)N(C)C)cc2c(=O)cc(N3CCOCC3)oc12` [AZD-8186], the Kd in test [1], in [2], in test [3], in [4], in test [5] and in test [6] was > 30 µM (inactive) throughout. Also, the Kd in test [7], in test [8], in [9], in test [10] and in [11] was > 30 µM (inactive) in each case.
`C[C@@H](c1ccc2nccn2c1)n1nnc2ncc(-c3cnn(C)c3)nc21` [SAVOLITINIB]: the Kd in test [1], in test [2], in test [3], in [4], in [5] and in [6] was > 30 µM (inactive) in each case. For the same compound, the Kd in test [7], in test [8], in test [9], in [10] and in [11] was > 30 µM (inactive) each time.

The record behind these values is ChEMBL document CHEMBL3991601, “The target landscape of clinical kinase drugs” (Science, 2017).
